Measured values from paper PMC10786919, “Design-rules for stapled peptides with in vivo activity and their application to Mdm2/X antagonists” (Nature Communications, 2024).
Positions of bridges follow the written chain, without caps; N, C: chain ends. Non-standard residues stand in square brackets, D forms with d. Residues, ends and D or L forms follow the SMILES beside them. tBuAla = CC(C)(C)C[C@H](N)C(=O)O; R8 = C=CCCCCCC[C@@](C)(N)C(=O)O; S5 = C=CCCC[C@](C)(N)C(=O)O; Ahx = NCCCCCC(=O)O

Legend:
Assay type in all cases: cell-based
[1] = system: p53 responsive β-lactamase reporter in HCT116 cells; experiment: cells; details: 0% FBS 4Hr; read-out: p53 reporter assay EC50
Outline: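 Read-out used the ToxBLAzer Dual Screen for β-lactamase driven by a stably integrated p53-responsive reporter. Assay: 8000 HCT116 cells per well at 0.5% final DMSO. Reported numbers are geometric means over a minimum of three biological replicates.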

[2] = Lactate dehydrogenase (LDH) release assay; details: LDH: Cytotoxicity assay EC50
Outline: (§1)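 A p53 β-lactamase reporter HCT116 line, 8000 cells per well, is exposed to test compounds at 0.5% final DMSO and scored for LDH leakage.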

HCT116 cells = experiment: Lactate dehydrogenase (LDH) release assay
Outline: as §1

[3] = system: Jump-In T-REx CHO-K1 BLA cells; experiment: cells; details: 0% FBS 4Hr; for EC50: read-out: TETCHO: Counterscreen EC50
Protocol: This assay was based on Jump-In™ T-REx™ CHO-K1 BLA cells containing a stably integrated β-lactamase under the control of an inducible cytomegalovirus (CMV) promoter. Cells were maintained in Dulbecco’s […] Eagle Medium (DMEM) with 10% fetal bovine serum (FBS), Blasticidin, and Penicillin/Streptomycin and then transferred to 1.5 ml freezing vials and stored under liquid nitrogen in growth media containing 5% DMSO. […] Cells were seeded into a 384-well plate at a density of 4000 cells per well. Peptides were then dispensed to each well using a liquid handler, ECHO 555 and incubated for 16 h. The final working concentration of DMSO was 0.5%. β-lactamase activity was detected using the ToxBLAzer Dual Screen (Invitrogen), as per the manufacturer’s instructions. Measurements were carried out using the Envision multiplate reader (Perkin–Elmer). Counterscreen activity was defined as the amount of β-lactamase activity induced by tetracycline. Measurements were taken a minimum of three times (biological replicates) and values are reported as geometric means of the replicates.

| SMILES | EC50 [1] [µM] | EC50 [2] [µM] | LDH: Cytotoxicity assay % Effect (HCT116 cells) [%] | TETCHO: Counterscreen % Effect [3] [%] | EC50 [3] [µM] |
| --- | --- | --- | --- | --- | --- |
| CC(=O)N[C@@H](Cc1c[nH]cn1)C(=O)N[C@@H](Cc1c[nH]cn1)C(=O)N[C@@H](Cc1c[nH]cn1)C(=O)NCCCCCC(=O)N[C@H](C(=O)N[C@@H](CO)C(=O)N[C@@H](Cc1ccccc1)C(=O)N[C@]1(C)CCCCCCC=CCCC[C@@](C)(C(N)=O)NC(=O)[C@H](CC(C)C)NC(=O)[C@H](CC(C)C)NC(=O)[C@H](C)NC(=O)[C@H](Cc2c[nH]c3ccccc23)NC(=O)[C@H](Cc2ccc(O)cc2)NC(=O)[C@H](CCC(=O)O)NC1=O)[C@@H](C)O [MP-008] | 17.9 | 28.5 | 42.18 | 75.71 | > 50 |
| CC(=O)N[C@@H](CCCNC(=N)N)C(=O)N[C@@H](CCCNC(=N)N)C(=O)N[C@@H](CCCNC(=N)N)C(=O)NCCCCCC(=O)N[C@H](C(=O)N[C@@H](CO)C(=O)N[C@@H](Cc1ccccc1)C(=O)N[C@]1(C)CCCCCCC=CCCC[C@@](C)(C(=O)N[C@@H](CCC(=O)O)C(=O)N[C@@H](CC(N)=O)C(=O)N[C@@H](Cc2ccc(O)cc2)C(N)=O)NC(=O)[C@H](CC(C)C)NC(=O)[C@H](CC(C)C)NC(=O)[C@H](C)NC(=O)[C@H](Cc2c[nH]c3ccccc23)NC(=O)[C@H](Cc2ccc(O)cc2)NC(=O)[C@H](CCC(=O)O)NC1=O)[C@@H](C)O [MP-012] (Ac-RRR[Ahx]TSF[R8]EYWALL[S5]ENY-NH2; staple 8-15) | 34.2 | > 50 | 36.73 | 23.79 | > 50 |
| CC(=O)N[C@@H](CCCCN)C(=O)N[C@@H](CCCCN)C(=O)NCCCCCC(=O)N[C@H](C(=O)N[C@@H](CO)C(=O)N[C@@H](Cc1ccccc1)C(=O)N[C@]1(C)CCCCCCC=CCCC[C@@](C)(C(=O)N[C@@H](CCC(=O)O)C(=O)N[C@@H](CC(N)=O)C(=O)N[C@@H](Cc2ccc(O)cc2)C(N)=O)NC(=O)[C@H](CC(C)C)NC(=O)[C@H](CC(C)C)NC(=O)[C@H](C)NC(=O)[C@H](Cc2c[nH]c3ccccc23)NC(=O)[C@H](Cc2ccc(O)cc2)NC(=O)[C@H](CCC(=O)O)NC1=O)[C@@H](C)O [MP-013] (Ac-KK[Ahx]TSF[R8]EYWALL[S5]ENY-NH2; staple 7-14) | 8.65 | > 50 | -1.001 | 11.6 | > 50 |
| CC(=O)N[C@H](C(=O)N[C@@H](CO)C(=O)N[C@@H](Cc1ccccc1)C(=O)N[C@]1(C)CCCCCCC=CCCC[C@@](C)(C(=O)N[C@@H](CO)C(=O)N[C@@H](C)C(=O)N[C@@H](C)C(=O)N[C@@H](CCC(=O)O)C(N)=O)NC(=O)[C@H](CC(C)(C)C)NC(=O)[C@H](CC(C)C)NC(=O)[C@H](C)NC(=O)[C@H](Cc2c[nH]c3ccccc23)NC(=O)[C@H](Cc2ccc(O)cc2)NC(=O)[C@H](CCC(=O)O)NC1=O)[C@@H](C)O [MP-143] (Ac-TSF[R8]EYWAL[tBuAla][S5]SAAE-NH2; staple 4-11) | 8.92 | > 50 | 5.215 | 0.6237 | > 50 |
| CC(=O)N[C@H](C(=O)N[C@@H](CO)C(=O)N[C@@H](Cc1ccccc1)C(=O)N[C@]1(C)CCCCCCC=CCCC[C@@](C)(C(N)=O)NC(=O)[C@H](CC(C)(C)C)NC(=O)[C@H](CC(C)C)NC(=O)[C@H](C)NC(=O)[C@H](Cc2c[nH]c3ccccc23)NC(=O)[C@H](Cc2ccc(O)cc2)NC(=O)[C@H](CCC(=O)O)NC1=O)[C@@H](C)O [MP-149] (Ac-TSF[R8]EYWAL[tBuAla][S5]-NH2; staple 4-11) | 12.6 | 28.3 | 42.59 | 20.68 | > 50 |
